How the values were obtained:
[1] = system: HeLa; assay: In vitro cytotoxicity against HeLaS3 cell lines.; type: functional, cell-based; conditions: Homo sapiens
[2] = system: Mus musculus; assay: Compound was evaluated in vivo for the antitumor activity against murine sarcoma 180 cell lines at the specified dose 4.0 mg/kg; type: functional
[3] = system: Mus musculus; assay: Compound was evaluated in vivo for the antitumor activity against murine sarcoma 180 cell lines at the specified dose 8.0 mg/kg; type: functional
[4] = system: Mus musculus; assay: Compound was evaluated in vivo for the antitumor activity against murine sarcoma 180 cell lines at the specified dose 16 mg/kg; type: functional
[5] = system: Mus musculus; assay: Compound was evaluated in vivo for the antitumor activity against murine sarcoma 180 cell lines at the specified dose 0.25 mg/kg; type: functional
[6] = system: Mus musculus; assay: Compound was evaluated in vivo for the antitumor activity against murine sarcoma 180 cell lines at the specified dose 2.0 mg/kg; type: functional
[7] = system: Mus musculus; assay: Compound was evaluated in vivo for the antitumor activity against murine sarcoma 180 cell lines at the specified dose 0.5 mg/kg; type: functional
[8] = system: Mus musculus; assay: Compound was evaluated in vivo for the antitumor activity against murine sarcoma 180 cell lines at the specified dose 1.0 mg/kg; type: functional
[9] = system: Mus musculus; assay: Compound was evaluated in vivo for the antitumor activity against murine sarcoma 180 cell lines at the specified dose 1 mg/kg; type: functional

Q: For CNc1ccc(/C=C/C(=O)N2C[C@@H](CBr)c3c2cc(OC(=O)N(C)C)c2c3C(=O)[C@](C)(C(=O)OC)N2)cc1, which IC50 [1] is on record?
A: Its IC50 is 720 nM.

Q: And the T/C [2]?
A: The T/C was 0.18.

Q: What about the T/C [3] of the same compound?
A: The T/C was 0.1.

Q: What about the T/C [4] of the same compound?
A: The T/C was 0.055.

Q: What does the source list for COC(=O)[C@]1(C)Nc2c(O)cc3c(c2C1=O)[C@H](CBr)CN3C(=O)c1cc2cc(OC)c(OC)c(OC)c2[nH]1?
A: IC50 [1]: 0.028 nM; T/C [5]: 0.024

Q: Which IC50 [1] does the source give for COC(=O)[C@]1(C)Nc2c(OC(=O)N(C)C)cc3c(c2C1=O)[C@H](CBr)CN3C(=O)/C=C/c1ccc(OC)cc1 here?
A: Its IC50 is 510 nM.

Q: What about the T/C [2] of the same compound?
A: Its T/C is 0.19.

Q: And the T/C [3]?
A: The T/C was 0.14.

Q: And the T/C [4]?
A: The T/C was 0.057.

Q: COC(=O)Nc1ccc2[nH]c(C(=O)N3C[C@@H](CBr)c4c3cc(OC(=O)N(C)C)c3c4C(=O)[C@](C)(C(=O)OC)N3)cc2c1 was tested. Which IC50 [1] did it give?
A: The IC50 was 584 nM.

Q: And the T/C [6]?
A: Its T/C is 0.31.

Q: What about the T/C [2] of the same compound?
A: The T/C was 0.13.

Q: COC(=O)[C@]1(C)Nc2c(OC(=O)N(C)C)cc3c(c2C1=O)[C@H](CBr)CN3C(=O)c1cc2cc(OC)ccc2o1 was tested. Which IC50 [1] did it give?
A: The IC50 was 400 nM.

Q: What about the T/C [7] of the same compound?
A: Its T/C is 0.26.

Q: What about the T/C [8] of the same compound?
A: The T/C was 0.13.

Q: For COC(=O)[C@@]1(C)C(=O)c2c3c(cc(O)c2N1C(=O)N(C)C)N(C(=O)c1cc2cc(OC)c(OC)c(OC)c2[nH]1)C[C@H]3CBr, which IC50 [1] is on record?
A: Its IC50 is 56 nM.

Q: What about the T/C [7] of the same compound?
A: The T/C was 0.13.

Q: And the T/C [9]?
A: Its T/C is 0.087.

Q: What about the T/C [5] of the same compound?
A: Its T/C is 0.31.

Q: What does the source list for COC(=O)[C@]1(C)Nc2c(OC(=O)N(C)C)cc3c(c2C1=O)[C@H](CBr)CN3C(=O)COc1ccc(OC)cc1?
A: IC50 [1]: 98 nM; T/C [2]: 0.24; T/C [3]: 0.16; T/C [4]: 0.076

— ChEMBL document CHEMBL1129088, “Synthesis and antitumor activity of novel duocarmycin derivatives” (Bioorg Med Chem Lett, 1996)
